Format in all cases: cell-based, human
Assay [1] concerns Hodgkin lymphoma cell lines. As to the kind of experiment: Mitotic index and chromosomal aberrations. As to the method:
The mitotic index and chromosomal aberrations for each of the cell lines were evaluated after treatment with either 20 μmol or 10 μmol EDO-S101 in DMSO. Each cell line was cultured at 37° C. in the presence of RPMI 1640 supplemented with 10% FCS and antibiotics. Colcemid (0.1 ug/ml) was added 2 h before harvesting and slides with chromosomes in metaphase were prepared following the standard methanol/acetic acid (3/1, v/v) procedure. The slides were stored at −20° C. until use.
FISH was performed using a combination of standard procedures from the recommended protocols for chromosome analysis, following telomere and centromere staining, using PNA probes. In all, 100 metaphases were scored per in vitro dose exposure.
The mitotic index was determined by measurement of the sum of all cells in prophase, metaphase, anaphase and telophase divided by the total number of cells.

For assay [2], the system named is L540 cell. Nature of the assay: Apoptosis, annexin V-FITC and Hoechst double staining. The following applies: 5 μM, 24 h and 48 h. Here is the method:
(§1) This assay was performed on 7 cell lines (HDLM2 was excluded due to the low number of available cells) at 24 h and 48 h following EDO-S101 treatment (5 μM, DMSO). Control cells were cultured in the same final concentration of DMSO. Only viable cells (using Hoechst staining) were focused on, and all necrotic cells were excluded. Apoptosis was determined using annexin V-FITC and Hoechst (33342) double staining according to the manufacturer's instructions (BD Biosciences). Cell-cycle fractions were determined by Hoechst nuclear staining. Briefly, cells were harvested, washed in PBS, incubated with annexin V-FITC and Hoechst solution for 30 minutes at room temperature. Data were collected using a FACSCalibur flow cytometer (BD Biosciences) and analyzed with FlowJo Version 7.5.5 obtainable from FlowJo, LLC. Results represent the mean value of 3 independent experiments.

In assay [3] the test system is Hodgkin lymphoma cell lines. The description is as above. The following applies: 5 μM, 24 h and 48 h, all cells. As to the method: as §1

SMILES strings stand for the structures.

Turning to `Cn1c(CCCCCCC(=O)NO)nc2cc(N(CCCl)CCCl)ccc21` [EDO-S101], the metaphases observed result is “only a few metaphases of poor quality” in assay [1] (10 μmol) and “No metaphases were observed” in assay [1] (20 μmol, any cell line). For the same compound, the “sensitivity in mitotic index assay” value in assay [1] (all cell lines, 24 h of treatment) is recorded as “remarkably high sensitivity”. For the same compound, the sensitivity for apoptosis entry in assay [2] is recorded as “higher sensitivity”; in assay [3], “high sensitivity”.

(Values after patent US20180098969A1, “HODGKIN LYMPHOMA THERAPY” (Purdue Pharmaceutical Products L.P., priority 2016, published 2018).)
